IC50 data for 16 compounds are collected here from ChEMBL document CHEMBL5046258, “Anti-inflammatory Dimeric Benzophenones from an Endophytic Pleosporales Species” (J Nat Prod, 2022).

This assay relates to RAW264.7. Kind of assay: Antiinflammatory activity in mouse RAW 264.7 cells assessed as inhibition of LPS-induced nitric oxide production measured after 24 hrs by Griess reagent assay. Type of assay: functional, cell-based. Conditions: RAW264.7, 24 h.
With `Cc1cc2c(C)cc(O)cc2c(=O)o1`, the IC50 is 46.1 µM.
Turning to `COc1cc(O)c(C(=O)c2c(C)cc(O)cc2OC)c(O)c1`, the IC50 was 35.1 µM.
For `COc1cc(C)c(C(=O)c2c(O)cc(OC)cc2O[C@@H]2O[C@H](CO)[C@@H](O)[C@H](O)[C@H]2O)c(OC)c1`, the IC50 was 43.3 µM.
The result for `COc1cc(C)c(C(=O)c2c(O)cc(O)cc2O)c(OC)c1` reads 39 µM.
In the case of `COc1cc(O)c2c(=O)c3c(C)c(O)c(OC)cc3oc2c1`, the IC50 turned out to be 22.4 µM.
The result for `COc1cc(C)c(C(=O)c2c(O)cc(OC)c(Cc3c(O)cc(O)cc3CC(C)=O)c2O)c(OC)c1` reads 18.1 µM; that for `COc1cc(C)c(C(=O)c2c(O)cc(OC)c(C(CCC(=O)O)c3c(OC)cc(O)c(C(=O)c4c(C)cc(OC)cc4OC)c3O)c2O)c(OC)c1`, 15.6 µM.
Take `COc1cc(C)c(C(=O)c2c(O)cc(OC)cc2O[C@@H]2O[C@H](CO)[C@@H](O)[C@H](O)[C@H]2O)c(O)c1`: the IC50 was found to be 23.3 µM.
Regarding `COc1cc(O)c(C(=O)c2c(C)cc(OC)cc2OC)c(O)c1`, the IC50 was determined as 45.2 µM.
In the case of `COc1cc(C)c(C(=O)c2c(O)cc(OC)c(Cc3c(OC)cc(O)c(C(=O)c4c(C)cc(OC)cc4OC)c3O)c2O)c(OC)c1`, the IC50 is 8.8 µM.
The result for `COc1cc(O)c(C(=O)Oc2c(C)cc(O)cc2OC)c(O)c1` reads 49.7 µM.
As for `Cc1cc(O)cc2oc(=O)c3c(O)cc(O)cc3c12` [ALTERNARIOL], the figure is 51.4 µM.
As for `COc1cc(O)c2c(c1)C1=CC(=O)C(O)=CC1(C)OC2=O` (stereo unspecified) [DEHYDROALTENUSIN], the figure is 39.1 µM.
`C[C@@H]1C[C@H]2[C@@H]3CCC4=CC(=O)C=C[C@]4(C)[C@@]3(F)[C@@H](O)C[C@]2(C)[C@@]1(O)C(=O)CO` [DEXAMETHASONE]: the IC50 worked out at 22.2 µM.
For the compound `COc1cc(C)c2c(=O)c3c(O)cc(OC)cc3oc2c1` [LICHEXANTHONE], the IC50 amounted to 19.5 µM.
In the case of `Cc1cc(O)cc2oc3cc(O)cc(O)c3c(=O)c12` [NORLICHEXANTHONE], the IC50 turned out to be 35.2 µM.

What is called IC50 is the midpoint of a concentration-inhibition curve.
